Melting point data for 88 compounds are collected here from a melting point compilation (Tetko et al.; mined from patent text by program, amines drawn as free bases though some values may be those of a salt).

The term melting point denotes the temperature of the solid-liquid transition. Turning to `CN1CCN(Cc2ccc(NC(=O)C#Cc3ccc(-c4ccc(Cl)cc4)cc3)cc2)CC1`, the melting point lay within 182 to 185 °C. Compound `O=C(O)CN=C(O)c1ccc(C(O)=NCC(=O)O)c2c(C(=O)O)ccc(C(=O)O)c12` registered a melting point greater than 300 °C.

Compound `CC(C(=O)O)(c1ccccc1)N1CCC(c2noc3cc(F)ccc23)CC1` (stereo not drawn) registered a melting point of 194 to 200 °C. `N#CN=C(NCCO)NCCCSc1nccc(NC(N)=NCC(F)(F)F)n1` had a melting point of 114 to 116 °C. `Cc1cc(C)cc(Oc2c(C(C)C)c(=O)[nH]c(=O)n2CC2CCCC2)c1` yielded a melting point of 157 to 158 °C. Compound `COc1cccc(CC(=O)O)c1OCc1cc(OCc2ccc3ccccc3n2)n(C(C)C)n1` came in with a melting point of 84 to 85 °C.

In the case of `COc1ccc(C(=O)Cc2cc(OC)ccc2OC)cc1`, the melting point lay in the range of 108 to 111 °C. For the compound `COC(=O)CCC(=O)c1ccc(F)cc1`, the melting point lay in the range of 48 to 50 °C. For the compound `C=CCNC(=S)N1CCc2[nH]cnc2C1`, the melting point is 172 °C. `O=C1NC(=O)C(=Cc2cc(O)c(O)c([N+](=O)[O-])c2)S1` returned a melting point of 295 to 298 °C. Turning to `CC1(C)OC[C@H](COc2ccc(C(=O)c3ccc([N+](=O)[O-])cc3)cc2)O1`, the melting point was 92 to 93 °C.

In turn, `Cc1nc2sccn2c(=O)c1Br` showed a melting point of 127 to 129 °C. Take `COC(=O)c1ccc(NN=CC(F)(F)F)cc1S(=O)(=O)NC(=O)Nc1nc(OC)cc(OC)n1`: the melting point is 201 to 202 °C. Under `CCN(CC)c1ccc(-c2cc3ccccc3o2)cc1` stands 117 to 119 °C; under `Cc1cccc(NC(=O)NC2CN(C(=O)C(C)C)c3ccccc3N(CC(=O)c3ccccc3C)C2=O)c1` (stereo not drawn), 174 to 176 °C.

`Cc1nc(Cc2ccc(NC(=O)/C=C/c3cnn(C)c3-c3ccc(F)cc3)cc2)no1` gave a melting point of 183 to 184 °C. In turn, `Cc1cc(C=Cc2ccccc2OCC2CO2)on1` (stereo not drawn) showed a melting point of 99 to 100 °C. With `Cn1c(C(F)(F)F)cc(=O)n(-c2cc(OCc3ccc(C(C)(C)C)cc3)c(Cl)cc2F)c1=O`, the melting point fell in the range of 156 to 158 °C.

In the case of `CC#CCOc1ccc(C(=O)NC[C@@H](C(=O)NO)N2CCCCC2)cc1`, the melting point stood at 144 °C. Under `CCCOC(=O)C1=C(N)NC(C)=C(C(=O)OC)C1c1cccc([N+](=O)[O-])c1` (stereo not drawn) stands 155 °C; under `COc1cccc(NC(=O)NC2CC(c3ccccc3F)c3ccccc3N(CC(=O)NC(C)(C)C)C2=O)c1` (stereo not drawn), 265 to 280 °C; under `CCN1c2ncc(CCc3ccnc(C(=O)OC)c3)cc2C(=O)N(C)c2ccc(Cl)nc21`, 149 °C. `Cc1c(CC(=O)O)c2ccccc2n1-c1ncnc2ccccc12` returned a melting point of 234 to 236 °C.

Regarding `COc1ccc(CS[C@@H]2C[C@@H](C(=O)NN)N(S(=O)(=O)c3ccc4ccccc4c3)C2)cc1`, the melting point was 130 °C. For `OC1C2=C(CCN1CCCCc1c[nH]c3ccccc13)c1ccccc1C2` (stereo not drawn), the melting point is 205 to 208 °C. The compound `CN(C)CCCNc1ccc([N+](=O)[O-])cc1` returned a melting point of 60 to 61.5 °C. `CN(CCOc1ccc(OC(F)(F)F)cc1)C1CCN(c2ccc(OC[C@@]3(C)Cn4cc([N+](=O)[O-])nc4O3)cc2)CC1` came in with a melting point of 186 to 188 °C.

As to `CCNC(=O)n1oc2ccccc2c1=O`, the melting point was 112 to 113 °C. `CN1CC(C(=O)c2nc(Cc3ccc(F)cc3)co2)=C(O)C1=O` registered a melting point of 209 to 210 °C.

For the compound `COc1ccc(Cl)cc1NC(=O)[C@H]1[C@H](c2ccc(Br)cc2)C1(C)C` (relative stereo), the melting point lay within 170 to 172 °C. `CCOC(=O)c1nnc2ccc(-c3ccco3)cc2c1O` had a melting point of 198 to 200 °C.

In turn, `O=C1c2ccccc2C(=O)N1C1CCCn2c1nc(-c1ccncc1)cc2=O` (racemic) came in with a melting point of 211 to 213 °C.

Turning to `CCCc1c(C(=O)N(C)Cc2ccc3cc(O)ccc3c2)cnn1-c1ccccc1`, the melting point was in the range of 138 to 141 °C. In the case of `COCCNC(=O)c1cccc(-c2ccc(F)c3cc(Cc4cccc(C(F)(F)F)c4)sc23)c1` it was 123 to 124 °C; in that of `ClC1=NCc2ccccc2SC1`, 164 to 168 °C; in that of `CCOC(=O)c1c(CN2CCC(C(=O)OCC)CC2)nc2sc3c(c2c1-c1ccc(OC)c(OC)c1)CCN(C(=O)c1ccc(Cl)cc1)C3`, 99 to 101 °C.

The compound `O=C1CCC(C(=O)N2CCN(C(=O)CN3CCOCC3)CC2)N1` (stereo not drawn) gave a melting point of 204 to 205 °C. In the case of `COC(=O)c1[nH]c2c(C)ccc(C)c2c1[N+](=O)[O-]` it was 193 to 194 °C; in that of `O=C(O)Cc1ccc(C(=O)c2ccc(Cl)cc2)s1`, 165 °C. Under `Cc1cc(SCc2cccc3nn(-c4ccc(C(F)(F)F)cc4)cc23)ccc1OCC(=O)O` stands 105 to 108 °C. `CCOC(=O)c1ncc(C)nc1O` returned a melting point of 153 °C. Turning to `O=C(O)c1ccc(CNS(=O)(=O)c2ccccc2)cc1`, the melting point is 223 to 227 °C. Under `COC(=O)CCOc1ccccc1CNC(=O)C1Cc2ccccc2N1S(=O)(=O)c1ccc(-c2cccc(C(F)(F)F)c2)cc1` (stereo not drawn) stands 131 °C; under `OCc1nccc(N2CCOCC2)c1Cl`, 80 to 82 °C; under `CC(C)Cn1c(C(=O)O)c(OCCCC(F)(F)F)c2cc(OCc3ccccc3)ccc2c1=O`, 130 to 131 °C. As to `NCC(O)c1nn(Cc2ccccc2)c2ccccc12` (stereo not drawn), the melting point was 126 °C.

For `COc1ccc(-c2[nH]nc3c2C(=O)c2c(NC(=O)NNC(=O)c4ccccc4O)cccc2-3)cc1`, the melting point worked out at 280 °C. As for `FC(F)(F)Oc1ccc(-c2cncc(Cl)n2)cc1`, the melting point lay within 58 to 60 °C.

`CNC(=O)N(OC(=O)OC)c1ccc(Cl)c(Cl)c1` yielded a melting point of 110 °C.

Consider `COC(=O)CCc1ccc(OCC(C)NCC(O)c2cccc(Cl)c2)cc1` (stereo not drawn), for which the melting point was 65 to 73 °C. With `CCCc1c(OCCCSc2nnc(SCC(=O)N(C)O)s2)ccc(C(C)=O)c1O`, the melting point was in the range of 97 to 99 °C. For `CC(C)(C)C(=O)CC(=O)c1cccc(C(=O)CC(=O)C(C)(C)C)c1`, the melting point fell in the range of 106 to 108 °C.

`CN1CCN(c2cccc3ccc(Nc4nc(Cc5ccccc5)cs4)cc23)CC1` had a melting point of 157 to 160 °C. Under `Cc1nc2nccc(Cl)c2cc1Br` stands 160 to 164 °C; under `COc1ccc(C=CC(=O)N2CCN(C(=O)C=Cc3ccc(OC)c(C(F)F)c3)CC2)cc1C(F)F`, 259 to 261 °C; under `C=CCc1cc(C(C)=O)c(OC)cc1OCCCCC#N`, 40 to 42 °C. Under `CC(=O)NCC1CN(c2ccc(N3CCN(c4nnc(C#N)s4)C(F)C3)cc2)C(=O)O1` (stereo not drawn) stands 200 to 202 °C; under `CN1CCC(NC(c2cccc([N+](=O)[O-])c2)c2nc3ccccc3[nH]2)CC1` (stereo not drawn), 254 °C. With `Nc1ccccc1Sc1ccccc1-c1nnn[nH]1`, the melting point fell in the range of 153 to 156 °C.

The compound `Cc1nc2c(s1)-c1nc(Nc3ccccc3)ncc1CC2` registered a melting point of 223 to 224 °C.

On to `CCCNc1cn(-c2cccnc2)nc1Cl`, for which the melting point fell in the range of 92 to 94 °C. As for `COC(=O)c1ccc2cc(OC)c(OC)cc2c1-c1ccnc(Br)c1`, the melting point lay in the range of 146 to 148 °C. In the case of `CC(=O)Nc1ccc(OCCCOc2ccc(Cl)c(Cl)c2)cc1` it was 135 to 137 °C; in that of `CCc1nn(Cc2cc(=O)[nH]c(N)n2)c(CC)c1Oc1cc(Cl)cc(Cl)c1`, 238 to 240 °C. In the case of `O=C(Cc1ccc(F)cc1)NC1CCN(Cc2ccc(Br)cc2)CC1` it was 144 °C; in that of `Cc1cc(C)c2c(c1C)C(C(=O)O)=C(Cl)C2=O`, 194 °C. Compound `Cc1ccc(S(=O)(=O)Nc2ccccc2C(=O)NCCc2ncc[nH]2)cc1` came in with a melting point of 173 to 181 °C.

`COc1ccc2nc(NC(=O)COC(=O)c3ccccc3)sc2c1`: the melting point was 203 to 204 °C. Take `COC(=O)CC1SC2=Nc3ccccc3CN2C1=O` (stereo not drawn): the melting point is 143 to 144 °C. As for `CSc1ccc(C(C)C)c(NC(=O)CN2CCN(CCCSc3nc4ccccc4o3)CC2)c1C(C)C`, the melting point fell in the range of 126 to 127 °C. Under `CN(CCCN1C(=O)c2cccc3cc4ccccc4c(c23)C1=O)CCCN1C(=O)c2cccc3cc4ccccc4c(c23)C1=O` stands 194 °C; under `Cc1cc(NCC(C)C)c2[nH]nc(-c3ccccc3)c2n1`, 187 to 190 °C. Under `CC(C)CC(CNOCc1ccccc1)C(=O)O` (racemic) stands 73 to 75 °C; under `CC(C)(C)C(NC(=O)c1ccc(Cl)cc1)NC(=NC#N)NCc1ccc(Cl)cc1` (stereo not drawn), 173 to 175 °C.

Compound `N#Cc1cc(N2CCC(c3cc(Cl)cc(Cl)c3)(C(F)(F)F)C2)ccc1F` (stereo not drawn) gave a melting point of 184 to 186 °C. As for `Cc1c(NC(=O)c2ccc(OC[C@@H]3CCCO3)cc2)ccc2[nH]c(CNC3CCCC3)cc12`, the melting point was 191 to 192 °C. With `COc1ccc(S(=O)(=O)NCCCCCCCC(=O)O)cc1`, the melting point was 102 to 103 °C. The compound `Cc1ccc2c(c1Cl)C(=O)N(C1(C(N)=O)CCCCC1)C2=O` showed a melting point of 192 to 208 °C. As for `CCCNC(=O)Nc1ccc(C(=O)OC)c(NC(=O)NC(C)C)c1`, the melting point was in the range of 94 to 95 °C. On to `COC(=O)CN1CCC(OC)(c2cccc(OCc3ccc4ccccc4c3)c2)C1` (stereo not drawn), for which the melting point lay within 78 to 80 °C. In the case of `CCOC(=O)NC(=O)C(C#N)=CNc1c(C)cccc1C` it was 138 to 140 °C; in that of `COc1ccccc1N1CCc2c(C)nc3c(OC)cccc3c21`, 168 to 169 °C; in that of `CCC(=O)c1cc2cc(OC)ccc2[nH]1`, 170 to 172 °C. In the case of `COc1cccc(CNc2ncnc3c2sc2nc(N4CCCC4)c4c(c23)CC(C)(C)CC4)c1OC`, the melting point fell in the range of 194 to 195 °C. The compound `CN1N=C2C(=Cc3ccccc3)CN(C(=O)CCl)CC2C1c1ccccc1` (stereo not drawn) gave a melting point of 88 to 90 °C.

As to `O=C(OC1CCCCC1=O)c1ccccc1` (stereo not drawn), the melting point is 81 to 83 °C. Compound `COc1ccc(-n2ccc(=O)c(-c3ccnn3-c3ccccc3)n2)cc1` showed a melting point of 179 to 180 °C. Under `Cc1cccc2c1SC1(CC1)C2=O` stands 74 to 75 °C.
